Assay results taken from paper PMC8224385, “X-ray screening identifies active site and allosteric inhibitors of SARS-CoV-2 main protease” (Science (New York, N.y.), 2021).
Counter-ions that a name gives are not always drawn. Like-named read-outs stand apart in the source and are kept apart here.

Legend:
SARS-CoV-2 = test: microbe, parasite or virus in culture; type: cell-based; conditions: for antiviral activity (in words) / reduction in infectious particles: SARS-CoV-2, Vero E6 cells; for reduction in infectious particles: compounds considered antivirally active
[1] = Cell viability of Vero E6 cells (CCK-8 method); conditions: African green monkey
in vitro = conditions: African green monkey
[2] = Severe acute respiratory syndrome coronavirus 2, Vero C1008, SARS-CoV-2 infectious particles, Vero E6 cells, immunofocus assay, read-out: EC50 for the viral titer reduction
[3] = Severe acute respiratory syndrome coronavirus 2, Vero C1008, read-out: EC50 for the viral titer reduction

| Molecule | antiviral activity (in words) (SARS-CoV-2) | reduction in infectious particles (SARS-CoV-2) [fold] | CC50 [1] [µM] | EC50 (SARS-CoV-2; [2]) [µM] | CC50 (in vitro) [µM] | EC50 (SARS-CoV-2; [3]) [µM] |
| --- | --- | --- | --- | --- | --- | --- |
| PD-168568 | inactive |  |  |  |  |  |
| CCCC[C@@H](C=O)NC(=O)[C@H](CC(C)C)NC(=O)OCc1ccccc1 [calpeptin] |  | ≥ 100 | > 100 |  |  |  |
| CCc1ccc(Cc2ccc3c(c2)[C@]2(OC3)O[C@H](CO)[C@@H](O)[C@H](O)[C@H]2O)cc1 [tofogliflozin] | inactive |  |  |  |  |  |
| CC(C(O)c1ccc(O)cc1)N1CCC(Cc2ccccc2)CC1 (centres unmarked) [ifenprodil] |  | ≥ 100 | > 100 | 46.9 |  |  |
| O=c1n(CC2CO2)c(=O)n(CC2CO2)c(=O)n1CC1CO1 (centres unmarked) [triglycidyl isocyanurate] |  | ≥ 100 | > 100 | 30 |  |  |
| CCOc1cc2ncc(C#N)c(Nc3ccc(F)c(Cl)c3)c2cc1NC(=O)/C=C/CN(C)C [pelitinib] |  | ≥ 100 |  | 1.25 | 14 |  |
| O=C1c2ccccc2CCC1CNCCc1ccc(O)cc1 (stereo not drawn) [HEAT, 2-[β-(4-hydroxyphenyl)-ethylaminomethyl]-tetralone] |  |  |  | 24.1 | 55.4 |  |
| CCc1cc(O)c(Oc2ccc(C(N)=O)cc2F)cc1F [MUT056399] |  | ≥ 100 |  | 38.2 | > 100 |  |
| O=C1Nc2ccccc2C2(CCN(CCc3ccc(C(F)(F)F)cc3)CC2)O1 [RS-102895] |  |  | 55 |  |  | 19.8 |
| O=C(NC1CCNCC1)c1n[nH]cc1NC(=O)c1c(Cl)cccc1Cl [AT7519, N-(4-piperidinyl)-4-(2,6-dichlorobenzoylamino)-1H-pyrazole-3-carboxamide] |  | ≥ 100 |  |  |  | 25.2 |
| CC(C)c1ccc2c(c1)C(N1CCN(CCO)CC1)Cc1ccc(F)cc1S2 (centres unmarked) [isofloxythepin] |  |  |  | 4.8 | 17 |  |
| Cc1ccc(C(=O)C(C)CN2CCCCC2)cc1 (centres unmarked) [tolperisone] |  | ≥ 100 |  | 19.2 | > 100 |  |
| c1ccc2nc(N3CCNCC3)ccc2c1 [quipazine maleate] |  |  |  | 31.6 | > 100 |  |
